ChEMBL document CHEMBL1141148, “Antidiabetic activity of passive nonsteroidal glucocorticoid receptor modulators” (J Med Chem, 2005)
Values joined by “and” are separate entries in the source; they are usually repeats but may differ in a detail not shown here. Equal values may be shown once. Each block holds one molecule with its values, some of them ahead of it. Active and inactive are the calls of the source. No cut-off for these calls is given here.

What was measured:
Rattus norvegicus [1] = assay: Reduction of uterine weight in pregnant rats after q.d. oral dosing at 3 mpk; assay type: functional
Rattus norvegicus [2] = assay: Reduction of progesterone levels in pregnant rats after q.d. oral dosing at 3 mpk; assay type: functional
Mus musculus [3] = species: Mus musculus; assay: Initial weight of the ob/ob mice before oral treatment at 100 mpk b.i.d. for 13 days; assay type: functional
Mus musculus [4] = species: Mus musculus; assay: Initial weight of the ob/ob mice before oral treatment at 100 mpk b.i.d. for 14 days; assay type: functional
Mus musculus [5] = species: Mus musculus; assay: Final weight of the ob/ob mice after 13 days of oral treatment at 100 mpk b.i.d.; assay type: functional
[6] = Half life period of the compound in rat hepatocytes was determined; assay type: ADME, cell-based, Liver, Hepatocyte
[7] = Half life period of the compound in rat liver microsomes was determined; assay type: ADME, Microsome
[8] = Cholesterol levels in ob/ob mice after 14 days of oral dose at 100 mpk b.i.d.; assay type: ADME; settings: mouse, in vivo, 100 mg/kg, 336 h
[9] = Glucose levels in ob/ob mice after 13 days of oral dose at 100 mpk b.i.d.; assay type: ADME; settings: mouse, in vivo, 100 mg/kg, 312 h
[10] = Glucose levels in ob/ob mice after 14 days of oral dose at 100 mpk b.i.d.; assay type: ADME; settings: mouse, in vivo, 100 mg/kg, 336 h
[11] = Insulin levels in ob/ob mice after 13 days of oral dose at 100 mpk b.i.d.; assay type: ADME; settings: mouse, in vivo, 100 mg/kg, 312 h
[12] = Insulin levels in ob/ob mice after 14 days of oral dose at 100 mpk b.i.d.; assay type: ADME; settings: mouse, in vivo, 100 mg/kg, 336 h
[13] = Free fatty acid (FFA) levels in ob/ob mice after 13 days of oral dose at 100 mpk b.i.d.; assay type: ADME; settings: mouse, in vivo, 100 mg/kg, 312 h
[14] = Free fatty acid (FFA) levels in ob/ob mice after 14 days of oral dose at 100 mpk b.i.d.; assay type: ADME; settings: mouse, in vivo, 100 mg/kg, 336 h
[15] = Alanine aminotransferase (ALT) levels in ob/ob mice after 13 days of oral dose at 100 mpk b.i.d.; assay type: ADME; settings: mouse, in vivo, 100 mg/kg, 312 h
[16] = Aspartate aminotransferase (AST) levels in ob/ob mice after 13 days of oral dose at 100 mpk b.i.d.; assay type: ADME; settings: mouse, in vivo, 100 mg/kg, 312 h
[17] = Liver levels in ob/ob mice after 14 days of oral dose at 100 mpk b.i.d.; assay type: ADME, tissue-based; settings: mouse, in vivo, 100 mg/kg, 336 h
[18] = Glycogen levels in ob/ob mice after 14 days of oral dose at 100 mpk b.i.d.; assay type: ADME; settings: mouse, in vivo, 100 mg/kg, 336 h
Progesterone receptor = target: T1, Progesterone receptor (Homo sapiens, UniProt P06401); assay: Inhibition of human progesterone receptor
T1 sequence (P06401 whole entry): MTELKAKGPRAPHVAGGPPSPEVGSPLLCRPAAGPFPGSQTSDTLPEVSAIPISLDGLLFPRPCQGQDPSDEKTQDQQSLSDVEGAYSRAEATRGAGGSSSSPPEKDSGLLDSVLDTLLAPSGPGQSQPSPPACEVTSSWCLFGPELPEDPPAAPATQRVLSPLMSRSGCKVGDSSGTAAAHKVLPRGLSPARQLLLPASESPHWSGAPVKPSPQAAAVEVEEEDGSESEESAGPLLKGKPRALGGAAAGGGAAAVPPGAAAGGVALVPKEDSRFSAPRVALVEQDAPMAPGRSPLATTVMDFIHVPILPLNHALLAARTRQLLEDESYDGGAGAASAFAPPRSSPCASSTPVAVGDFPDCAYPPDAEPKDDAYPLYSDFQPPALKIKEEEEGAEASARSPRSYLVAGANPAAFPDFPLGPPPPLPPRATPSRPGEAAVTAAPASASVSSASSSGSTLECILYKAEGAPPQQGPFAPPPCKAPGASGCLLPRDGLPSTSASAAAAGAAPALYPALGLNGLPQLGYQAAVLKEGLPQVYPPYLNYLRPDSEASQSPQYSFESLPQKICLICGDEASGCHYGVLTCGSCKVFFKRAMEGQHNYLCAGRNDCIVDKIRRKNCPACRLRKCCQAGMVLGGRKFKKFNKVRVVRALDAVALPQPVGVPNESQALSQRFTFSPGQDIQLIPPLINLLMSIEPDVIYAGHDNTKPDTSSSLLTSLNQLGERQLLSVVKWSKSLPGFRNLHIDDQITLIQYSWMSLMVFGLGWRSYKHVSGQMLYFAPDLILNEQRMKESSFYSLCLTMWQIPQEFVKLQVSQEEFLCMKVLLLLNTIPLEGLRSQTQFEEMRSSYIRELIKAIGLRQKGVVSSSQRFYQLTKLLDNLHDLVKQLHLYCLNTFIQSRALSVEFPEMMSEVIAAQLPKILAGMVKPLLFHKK

Glucocorticoid receptor [19] = target: T2, Glucocorticoid receptor (Homo sapiens, UniProt P04150); assay: Antagonistic activity against 5 nM Dexamethasone induced glucocorticoid receptor mediated alkaline phosphatase activity; assay type: functional
T2 sequence (P04150 whole entry): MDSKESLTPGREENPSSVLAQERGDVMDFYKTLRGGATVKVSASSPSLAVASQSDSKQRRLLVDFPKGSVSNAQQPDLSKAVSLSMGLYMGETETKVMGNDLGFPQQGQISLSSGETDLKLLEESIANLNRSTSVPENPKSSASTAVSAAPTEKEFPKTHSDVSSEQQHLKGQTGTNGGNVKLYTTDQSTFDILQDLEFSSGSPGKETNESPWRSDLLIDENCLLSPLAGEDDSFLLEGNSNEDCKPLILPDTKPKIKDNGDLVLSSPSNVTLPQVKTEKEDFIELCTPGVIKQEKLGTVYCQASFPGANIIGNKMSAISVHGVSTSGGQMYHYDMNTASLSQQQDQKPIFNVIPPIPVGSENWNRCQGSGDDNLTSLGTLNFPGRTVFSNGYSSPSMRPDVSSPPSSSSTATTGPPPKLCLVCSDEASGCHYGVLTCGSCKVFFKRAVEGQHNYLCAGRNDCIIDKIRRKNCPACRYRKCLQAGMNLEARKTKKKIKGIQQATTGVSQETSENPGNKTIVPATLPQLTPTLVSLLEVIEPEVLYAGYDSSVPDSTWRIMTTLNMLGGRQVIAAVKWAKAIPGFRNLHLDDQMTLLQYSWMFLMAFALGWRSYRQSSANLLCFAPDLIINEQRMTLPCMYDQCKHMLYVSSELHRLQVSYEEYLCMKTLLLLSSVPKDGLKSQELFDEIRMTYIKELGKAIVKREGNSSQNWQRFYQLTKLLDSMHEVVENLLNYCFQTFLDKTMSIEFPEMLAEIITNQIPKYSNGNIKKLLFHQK

Glucocorticoid receptor [20] = target: T2, Glucocorticoid receptor
[21] = target: T3, Glucocorticoid receptor (Homo sapiens) (UniProt P04150); settings: Huh-7
T3 sequence (whole entry): T2 sequence (P04150 whole entry)

SMILES: CC#C[C@]1(O)CC[C@H]2[C@@H]3CCC4=CC(=O)CCC4=C3[C@@H](c3ccc(N(C)C)cc3)C[C@@]21C [MIFEPRISTONE]
- Reduction (Rattus norvegicus [1]): 50%
- Reduction (Rattus norvegicus [2]): 50%
- Weight (Mus musculus [3]): 46.1 g
- Weight (Mus musculus [4]): 41.7 g
- Weight (Mus musculus [5]): 48.2 g and 51.2 g
- half-life [6]: < 6 min
- half-life [7]: < 19.8 min
- Level [8]: 366 mg/dL
- Level [9]: 141 mg/dL
- Level [10]: 170 mg/dL
- Level [11]: 7.5 ng/mL
- Level [12]: 14 ng/mL
- Level [13]: 1.5 mequiv/L
- Level [14]: 0.84 mequiv/L
- Level [15]: 1110 units/mL
- Level [16]: 310 units/mL
- Level [17]: 1.8 nmol of pHB/min/mg of protein
- Level [18]: 30.5 mg/gof liver

- IC50 (Progesterone receptor): 140 nM
- IC50 (Glucocorticoid receptor [19]): 330 nM
- IC50 (Glucocorticoid receptor [20]): 1.8 nM
- Agonistic activity [21]: inactive
SMILES: Cc1c(NS(C)(=O)=O)cccc1N(Cc1ccc(Oc2ccc(Br)c(OCC(=O)O)c2)cc1)Cc1ccc(F)cc1F
